{
  "source": "patent US8580762B2",
  "about": "“Substituted purine and 7-deazapurine compounds” (Epizyme, Inc., priority 2010, dated 2013)",
  "data": [
    {"biological_target": "DOT1L(1-416) (Homo sapiens, UniProt Q8TEK3)", "sequence (Q8TEK3 1-416)": "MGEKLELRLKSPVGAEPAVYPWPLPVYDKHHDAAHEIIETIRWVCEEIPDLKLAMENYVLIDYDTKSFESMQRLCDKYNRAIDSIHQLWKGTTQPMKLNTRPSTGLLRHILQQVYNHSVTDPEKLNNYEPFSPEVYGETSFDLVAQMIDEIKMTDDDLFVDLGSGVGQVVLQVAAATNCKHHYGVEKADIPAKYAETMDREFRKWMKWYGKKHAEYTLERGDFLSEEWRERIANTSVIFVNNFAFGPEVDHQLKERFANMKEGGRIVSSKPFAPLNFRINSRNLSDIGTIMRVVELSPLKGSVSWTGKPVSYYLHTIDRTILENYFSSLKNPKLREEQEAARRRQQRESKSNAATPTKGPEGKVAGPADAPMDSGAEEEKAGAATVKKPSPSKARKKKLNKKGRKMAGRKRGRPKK", "test": "Determination of IC50: DOT1L(1-416) methyltransferase assay, 3H-SAM, oligonucleosome substrate, Flashplate", "type": "biochemical", "conditions": "DOT1L IC50, class symbols", "in_short": "(§1)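 Compounds in 10-point 3-fold DMSO dilutions were tested in reactions started with substrate mix of 200 nM [3H]-SAM, 600 nM unlabeled SAM and 20 nM oligonucleosome. Reactions ran 120 min at room temperature and were quenched with 100 μM SAM. Labeled substrate was captured on streptavidin Flashplates and counted by scintillation to give IC50.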", "units": {"IC50": "µM"}, "values": [
      {"compound": "CC(C)[N+]([O-])(C[C@H]1O[C@@H](n2cnc3c(N)ncnc32)[C@H](O)[C@@H]1O)[C@H]1C[C@@H](CCc2nc3cc(C(C)(C)C)ccc3[nH]2)C1", "note": "(stereo partly drawn) [Compound 106, (1r,3S)-N-(((2R,3S,4R,5R)-5-(6-amino-9H-purin-9-yl)-3,4-dihydroxy-tetrahydrofuran-2-yl)methyl)-3-(2-(5-(tert-butyl)-1H-benzo[d]imidazol-2-yl)ethyl)-N-isopropyl-cyclobutanamine oxide]", "IC50": "< 0.1"},
      {"compound": "CC(C)[N+]([O-])(CC1O[C@@H](n2cnc3c(N)ncnc32)[C@H](O)[C@@H]1O)[C@H]1C[C@H](CCc2nc3cc(C(C)(C)C)ccc3[nH]2)C1", "note": "(stereo partly drawn) [Compound 107, (R,1s,3R)-N-(((2R,35,4R,5R)-5-(6-amino-9H-purin-9-yl)-3,4-dihydroxy-tetrahydrofuran-2-yl)methyl)-3-(2-(5-(tert-butyl)-1H-benzo[d]imidazol-2-yl)ethyl)-N-isopropyl-cyclobutanamine oxide]", "IC50": "< 0.1"}
    ]},
    {"biological_target": "DOT1L(1-416) (Homo sapiens, UniProt Q8TEK3)", "test": "Determination of IC50: DOT1L(1-416) methyltransferase assay, 3H-SAM, oligonucleosome substrate, Flashplate", "type": "biochemical", "conditions": "class symbols; read-out: DOT1L IC50", "in_short": "as §1", "units": {"IC50": "µM"}, "values": [
      {"compound": "CN(C[C@H]1O[C@@H](n2cnc3c(N)ncnc32)[C@H](O)[C@@H]1O)[C@H]1C[C@@H](CCc2nc3cc(OC(F)(F)F)ccc3[nH]2)C1", "note": "[Compound 96, (2R,3R,4S,5R)-2-(6-amino-9H-purin-9-yl)-5-((methyl((1r,3S)-3-(2-(5-(trifluoromethoxy)-1H-benzo[d]imidazol-2-yl)ethyl)cyclobutyl)amino)methyl)tetrahydrofuran-3,4-diol]", "IC50": "< 0.1"},
      {"compound": "CN(C[C@H]1O[C@@H](n2cnc3c(N)ncnc32)[C@H](O)[C@@H]1O)[C@H]1C[C@H](CCc2nc3cc(OC(F)(F)F)ccc3[nH]2)C1", "note": "[Compound 97]", "IC50": "< 0.1"},
      {"compound": "CC(C)(C)c1ccc2[nH]c(CC[C@H]3C[C@@H](NC[C@H]4O[C@@H](n5cnc6c(N)ncnc65)[C@H](O)[C@@H]4O)C3)nc2c1", "note": "[Compound 98, (2R,3R,4S,5R)-2-(6-amino-9H-purin-9-yl)-5-((((1r,3S)-3-(2-(5-(tert-butyl)-1H-benzo[d]imidazol-2-yl)ethyl)cyclobutyl)amino)methyl) tetrahydrofuran-3,4-diol]", "IC50": "< 0.1"},
      {"compound": "CC(C)(C)c1ccc2[nH]c(CC[C@H]3C[C@H](NC[C@H]4O[C@@H](n5cnc6c(N)ncnc65)[C@H](O)[C@@H]4O)C3)nc2c1", "note": "[Compound 99, (2R,3R,4S,5R)-2-(6-amino-9H-purin-9-yl)-5-((((1s,3R)-3-(2-(5-(tert-butyl)-1H-benzo[d]imidazol-2-yl)ethyl)cyclobutyl)amino)methyl) tetrahydrofuran-3,4-diol]", "IC50": "< 0.1"},
      {"compound": "CC(C)N(C[C@@H]1C[C@@H](O)[C@H](n2ccc3c(N)ncnc32)C1)[C@H]1C[C@@H](CCc2nc3cc(C(C)(C)C)ccc3[nH]2)C1", "note": "[Compound 101, (1R,2R,4S)-2-(4-amino-7H-pyrrolo[2,3-d]pyrimidin-7-yl)-4-((((1r,3R)-3-(2-(5-(tert-butyl)-1H-benzo[d]imidazol-2-yl)ethyl)cyclobutyl) (isopropyl)amino)methyl)cyclopentanol]", "IC50": "0.1 to 1"},
      {"compound": "CC(C)(C)c1ccc2[nH]c(CC[C@H]3C[C@@H](N(C[C@H]4O[C@@H](n5cnc6c(N)ncnc65)[C@H](O)[C@@H]4O)CC(F)(F)F)C3)nc2c1", "note": "[Compound 102, (2R,3R,4S,5R)-2-(6-amino-9H-purin-9-yl)-5-((((1r,3S)-3-(2-(5-(tert-butyl)-1H-benzo[d]imidazol-2-yl)ethyl)cyclobutyl) (2,2,2-trifluoroethyl)amino)methyl)tetrahydrofuran-3,4-diol]", "IC50": "0.1 to 1"},
      {"compound": "CC(C)N(C[C@@H]1C[C@@H](O)[C@H](n2ccc3c(N)ncnc32)C1)[C@H]1C[C@H](CCc2nc3cc(Cl)c(C(F)(F)F)cc3[nH]2)C1", "note": "[Compound 103, (1R,2R,4S)-2-(4-amino-7H-pyrrolo[2,3-d]pyrimidin-7-yl)-4-((((1s,3S)-3-(2-(5-chloro-6-(trifluoromethyl)-1H-benzo[d]imidazol-2-yl)ethyl)cyclobutyl) (isopropyl)amino)methyl)cyclopentanol]", "IC50": "1 to 10"},
      {"compound": "CC(C)N(C[C@@H]1C[C@@H](O)[C@H](n2ccc3c(N)ncnc32)C1)[C@H]1C[C@H](CCc2nc3cc(C(C)(C)C)ccc3[nH]2)C1", "note": "[Compound 104, (1R,2R,4S)-2-(4-amino-7H-pyrrolo[2,3-d]pyrimidin-7-yl)-4-((((1s,3S)-3-(2-(5-(tert-butyl)-1H-benzo[d]imidazol-2-yl)ethyl)cyclobutyl) (isopropyl)amino)methyl)cyclopentanol]", "IC50": "1 to 10"},
      {"compound": "CC(C)N(C[C@@H]1C[C@@H](O)[C@H](n2ccc3c(N)ncnc32)C1)[C@H]1C[C@@H](CCc2nc3cc(Cl)c(C(F)(F)F)cc3[nH]2)C1", "note": "[Compound 105, (1R,2R,4S)-2-(4-amino-7H-pyrrolo[2,3-d]pyrimidin-7-yl)-4-((((1r,3R)-3-(2-(5-chloro-6-(trifluoromethyl)-1H-benzo[d]imidazol-2-yl)ethyl)cyclobutyl) (isopropyl)amino)methyl)cyclopentanol]", "IC50": "1 to 10"},
      {"compound": "CN(C[C@H]1O[C@@H](n2cnc3c(N)ncnc32)[C@H](O)[C@@H]1O)C1CC(CNC(=O)Nc2ccc(C(C)(C)C)cc2)C1", "note": "(stereo partly drawn) [Compound 110, 1-((3-((((2R,3S,4R,5R)-5-(6-amino-9H-purin-9-yl)-3,4-dihydroxytetrahydrofuran-2-yl)methyl)(methyl)amino)cyclobutyl)methyl)-3-(4-(tert-butyl)phenyl)urea]", "IC50": "< 0.1"},
      {"compound": "CC(C)N(C[C@H]1O[C@@H](n2cnc3c(N)ncnc32)[C@H](O)[C@@H]1O)C1CC(CCc2nc3cc(C4CCC4)ccc3[nH]2)C1", "note": "(stereo partly drawn) [Compound 111, (2R,3R,4S,5R)-2-(6-amino-9H-purin-9-yl)-5-(((3-(2-(5-cyclobutyl-1H-benzo[d]imidazol-2-yl)ethyl)cyclobutyl) (isopropyl)amino)methyl)tetrahydrofuran-3,4-diol]", "IC50": "< 0.1"},
      {"compound": "CC(C)N(C[C@H]1O[C@@H](n2cnc3c(N)ncnc32)[C@H](O)[C@@H]1O)C1CC(CCc2nc3cc(C4CC4)ccc3[nH]2)C1", "note": "(stereo partly drawn) [Compound 112, (2R,3R,4S,5R)-2-(6-amino-9H-purin-9-yl)-5-(((3-(2-(5-cyclopropyl-1H-benzo[d]imidazol-2-yl)ethyl)cyclobutyl) (isopropyl)amino)methyl)tetrahydrofuran-3,4-diol]", "IC50": "< 0.1"},
      {"compound": "CC(C)N(C[C@H]1O[C@@H](n2cnc3c(N)ncnc32)[C@H](O)[C@@H]1O)[C@H]1C[C@H](CCc2nc3cc(C4CCC4)ccc3[nH]2)C1", "note": "[Compound 114, (2R,3R,4S,5R)-2-(6-amino-9H-purin-9-yl)-5-((((1s,3R)-3-(2-(5-cyclobutyl-1H-benzo[d]imidazol-2-yl)ethyl)cyclobutyl) (isopropyl)amino)methyl)tetrahydrofuran-3,4-diol]", "IC50": "< 0.1"},
      {"compound": "CC(C)N(C[C@H]1O[C@@H](n2cnc3c(N)ncnc32)[C@H](O)[C@@H]1O)[C@H]1C[C@@H](CCc2nc3cc(C4CCC4)ccc3[nH]2)C1", "note": "[Compound 115, (2R,3R,4S,5R)-2-(6-amino-9H-purin-9-yl)-5-((((1r,3S)-3-(2-(5-cyclobutyl-1H-benzo[d]imidazol-2-yl)ethyl)cyclobutyl) (isopropyl)amino)methyl)tetrahydrofuran-3,4-diol]", "IC50": "< 0.1"},
      {"compound": "CC(C)N(C[C@H]1O[C@@H](n2cnc3c(N)ncnc32)[C@H](O)[C@@H]1O)[C@H]1C[C@@H](CCc2nc3cc(C4CC4)ccc3[nH]2)C1", "note": "[Compound 116, (2R,3R,4S,5R)-2-(6-amino-9H-purin-9-yl)-5-((((1r,3S)-3-(2-(5-cyclopropyl-1H-benzo[d]imidazol-2-yl)ethyl)cyclobutyl) (isopropyl)amino)methyl)tetrahydrofuran-3,4-diol]", "IC50": "< 0.1"},
      {"compound": "CC(C)N(C[C@H]1O[C@@H](n2cnc3c(N)ncnc32)[C@H](O)[C@@H]1O)C1CC(CCc2nc3cc(C4(C#N)CCC4)ccc3[nH]2)C1", "note": "(stereo partly drawn) [Compound 117, 1-(2-(2-(3-((((2R,3S,4R,5R)-5-(6-amino-9H-purin-9-yl)-3,4-dihydroxytetrahydro-furan-2-yl)methyl)(isopropyl)amino)cyclobutyl)ethyl)-1H-benzo[d]imidazol-5-yl)cyclo-butanecarbonitrile]", "IC50": "< 0.1"},
      {"compound": "COCC(C)(C)c1ccc2[nH]c(CCC3CC(N(C[C@H]4O[C@@H](n5cnc6c(N)ncnc65)[C@H](O)[C@@H]4O)C(C)C)C3)nc2c1", "note": "(stereo partly drawn) [Compound 118, (2R,3R,4S,5R)-2-(6-amino-9H-purin-9-yl)-5-((isopropyl(3-(2-(5-(1-methoxy-2-methylpropan-2-yl)-1H-benzo[d]imidazol-2-yl)ethyl)cyclobutyl)amino)methyl) tetrahydrofuran-3,4-diol]", "IC50": "< 0.1"},
      {"compound": "CC(C)N(C[C@H]1O[C@@H](n2cnc3c(N)ncnc32)[C@H](O)[C@@H]1O)[C@H]1C[C@H](CCc2nc3cc(C4CC4)ccc3[nH]2)C1", "note": "[Compound 119, (2R,3R,4S,5R)-2-(6-amino-9H-purin-9-yl)-5-((((1s,3R)-3-(2-(5-cyclopropyl-1H-benzo[d]imidazol-2-yl)ethyl)cyclobutyl) (isopropyl)amino)methyl)tetrahydrofuran-3,4-diol]", "IC50": "< 0.1"},
      {"compound": "CC(C)N(C[C@H]1O[C@@H](n2cnc3c(N)ncnc32)[C@H](O)[C@@H]1O)C1CC(CCc2nc3cc(C(C)(C)C#N)ccc3[nH]2)C1", "note": "(stereo partly drawn) [Compound 120, 2-(2-(2-(3-((((2R,3S,4R,5R)-5-(6-amino-9H-purin-9-yl)-3,4-dihydroxytetrahydro-furan-2-yl)methyl)(isopropyl)amino)cyclobutyl)ethyl)-1H-benzo[d]imidazol-5-yl)-2-methylpropanenitrile]", "IC50": "< 0.1"},
      {"compound": "COCC(C)(C)c1ccc2[nH]c(CC[C@H]3C[C@H](N(C[C@H]4O[C@@H](n5cnc6c(N)ncnc65)[C@H](O)[C@@H]4O)C(C)C)C3)nc2c1", "note": "[Compound 121, (2R,3R,4S,5R)-2-(6-amino-9H-purin-9-yl)-5-((isopropyl((1s,3R)-3-(2-(5-(1-methoxy-2-methylpropan-2-yl)-1H-benzo[d]imidazol-2-yl)ethyl)cyclobutyl)amino)methyl) tetrahydrofuran-3,4-diol]", "IC50": "< 0.1"}
    ]}
  ]
}
